Results reported in patent US6875768B1, “Phthalamide derivatives, intermediates in the production thereof, and agricultural/horticultural insecticides and method for using the same” (Nihon Nohyako Co., Ltd., priority 1999, dated 2005).

What was measured:
[1] = test system: rice leafroller (Cnaphalocrosis medinalis); conditions: 500 ppm; rice lamina immersed about 30 seconds; third-instar larvae; four days after the inoculation; 25° C., humidity 70%
Experimental: Insecticidal effect on rice leafroller (Cnaphalocrosis medinalis)
After air-dryness, the lamina was placed in a plastic Petri dish with a diameter of 9 cm whose bottom had been covered with a wetted filter paper. The lamina was inoculated with third-instar larvae of rice leafroller, after which the dish was allowed to stand in a room thermostatted at 25° C. and having a humidity of 70%. Four days after the inoculation, the dead and alive were counted and the insecticidal effect was judged according to the criterion shown in Test Example 1. The test was carried out with triplicate groups of 10 insects.

[2] = test system: Common cutworm (Spodoptera litura); assay type: in vivo; conditions: 500 ppm; cabbage leaf immersed about 30 seconds; second-instar larvae; eight days after the inoculation; 25° C.
Source text: Insecticidal Effect on Common cutworm (Spodoptera litura)

[3] = test system: diamond back moth (Plutella xylostella); assay type: in vivo; conditions: 1,000 ppm; Chinese cabbage seedling with eggs immersed about 30 seconds; counted six days after the immersion; 25° C.
Source text: Insecticidal effect on diamond back moth (Plutella xylostella)
Adult diamond back moths were released and allowed to oviposit on a Chinese cabbage seedling. […] Six days after the immersion, the hatched insects were counted. […] [formula] Criterion • A - - - Mortality 100% • B - - - Mortality 99-90% • C - - - Mortality 89-80% • D - - - Mortality 79-50%

Measured: insecticidal effect (activity ranking by mortality)

Cc1nc(C(F)(C(F)(F)F)C(F)(F)F)ccc1NC(=O)c1cccc(I)c1C(=O)NC(C)(C)C [Q27-143]
B or higher: all assays above

CSCC(C)NC(=O)c1c(I)cccc1C(=O)Nc1cnc(C(F)(C(F)(F)F)C(F)(F)F)cc1C (stereo not drawn) [Q27-144, N^1-(4-methyl-2-heptafluoroisopropyl-pyridin-5-yl)-N^2-(1-methyl-2-methylthioethyl),-3-iodophthalamide]
B or higher: all assays above

CSCC(C)NC(=O)c1c(I)cccc1C(=O)Nc1ccc(C(F)(C(F)(F)F)C(F)(F)F)nc1C (stereo not drawn) [Q27-145]
B or higher: all assays above

CC(C)NC(=O)c1c(C(=O)Nc2cccnc2)cccc1[N+](=O)[O-] [Q27-164]
B or higher: all assays above
